Data: patent publication US20170107503A1, “NOVEL METHODS, POLYPEPTIDES AND USES THEREOF” (priority 2014, published 2017)

Tests used:
Type in all cases: biochemical
Details in all cases: WT-Trp = 100
[1] = target: T1, Atlantic cod (Gadus morhua) trypsin I, wildtype, purified from Atlantic cod (WT-Trp), SEQ ID NO: 1 (Gadus morhua, UniProt P16049); test: Activity assay to determine kinetic constants, WT-Trp (purified)
T1 construct: from tissue
T1 sequence (P16049 20-241): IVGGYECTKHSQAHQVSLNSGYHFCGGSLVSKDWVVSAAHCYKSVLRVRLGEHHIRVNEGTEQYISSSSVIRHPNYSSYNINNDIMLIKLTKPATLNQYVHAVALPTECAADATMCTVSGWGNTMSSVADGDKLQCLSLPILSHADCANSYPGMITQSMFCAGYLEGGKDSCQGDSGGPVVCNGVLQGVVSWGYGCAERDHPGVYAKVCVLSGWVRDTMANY
Protocol: The following polypeptides were obtained or produced: • (a) Wildtype trypsin I purified from Atlantic cod (“WT-Tryp” or “wildtype”); • (b) Recombinantly expressed wildtype trypsin I of Atlantic cod (SEQ ID NO:1, “R-Tryp”); and • (c) Thirty-eight different mutated versions of trypsin I of Atlantic cod (i.e. mutated sequences of SEQ ID NO:1).
(§1) The substrate (Gly-Pro-Arg) was used at concentrations 0.005-0.15 mM in assay buffer containing 1% DMSO. 245 μL of substrate solutions were pipetted into a 96-well plate. The reaction was started by adding 5 μL of the sample mixture (above) and monitored at 410 nm in a SpectraMax plate reader. Kinetic measurement was performed every minute of a continuous 15-min run.

[2] = target: T2, Atlantic cod (Gadus morhua) trypsin I, recombinant wildtype, EZA-001, SEQ ID NO: 1 (Gadus morhua, UniProt P16049); test: Activity assay to determine kinetic constants, EZA-001
T2 construct: made in house; host or cells: E. coli BL21 (DE3)
T2 sequence (P16049 20-241): T1 sequence (P16049 20-241)
Protocol: (§2) Polypeptides corresponding to the wildtype amino acid sequence of trypsin I from Atlantic cod and thirty-eight mutated versions thereof were produced using the methods described in Example A.
(§3) Activation of recombinant enzymes (approximately 0.01 mg/ml) was achieved by adding wild type trypsin (0.2 U/ml) at room temperature and incubate for 24 hours. The mixture was made in 20 mM Tris-HCl, 1 mM CaCl2, 50% glycerol, pH 8.0 to a final volume of 200 μl.
as §1

[3] = tested on: Atlantic cod (Gadus morhua) trypsin I variant EZA-002, N244S, Y245N, S87K in SEQ ID NO: 1 (N240S, Y241N, S88K in SEQ ID NO: 2); test: Activity assay to determine kinetic constants, EZA-002
Protocol: as §2, §3, §1

[4] = target: T3, Atlantic cod (Gadus morhua) trypsin I variant EZA-003, K154T in SEQ ID NO: 1 (K152T in SEQ ID NO: 2) (Gadus morhua, UniProt P16049, K152T); test: Activity assay to determine kinetic constants, EZA-003
T3 construct: made in house; host or cells: E. coli BL21 (DE3)
Protocol: as §2, §3, §1

[5] = tested on: Atlantic cod (Gadus morhua) trypsin I variant EZA-004, K154L in SEQ ID NO: 1 (K152L in SEQ ID NO: 2); test: Activity assay to determine kinetic constants, EZA-004
Protocol: as §2, §3, §1

[6] = tested on: Atlantic cod (Gadus morhua) trypsin I variant EZA-005, K154V in SEQ ID NO: 1 (K152V in SEQ ID NO: 2); test: Activity assay to determine kinetic constants, EZA-005
Protocol: as §2, §3, §1

[7] = target: T4, Atlantic cod (Gadus morhua) trypsin I variant EZA-006, K154E in SEQ ID NO: 1 (K152E in SEQ ID NO: 2) (Gadus morhua, UniProt P16049, K152E); test: Activity assay to determine kinetic constants, EZA-006
T4 construct: made in house; host or cells: E. coli BL21 (DE3)
Protocol: as §2, §3, §1

[8] = tested on: Atlantic cod (Gadus morhua) trypsin I variant EZA-007, N98T in SEQ ID NO: 1 (N99T in SEQ ID NO: 2); test: Activity assay to determine kinetic constants, EZA-007
Protocol: as §2, §3, §1

[9] = tested on: Atlantic cod (Gadus morhua) trypsin I variant EZA-008, I99L in SEQ ID NO: 1 (I100L in SEQ ID NO: 2); test: Activity assay to determine kinetic constants, EZA-008
Protocol: as §2, §3, §1

[10] = tested on: Atlantic cod (Gadus morhua) trypsin I variant EZA-009, L185G, P225Y in SEQ ID NO: 1 (L184G, P221Y in SEQ ID NO: 2); test: Activity assay to determine kinetic constants, EZA-009
Protocol: as §2, §3, §1

T4 sequence (P16049 20-241 K152E): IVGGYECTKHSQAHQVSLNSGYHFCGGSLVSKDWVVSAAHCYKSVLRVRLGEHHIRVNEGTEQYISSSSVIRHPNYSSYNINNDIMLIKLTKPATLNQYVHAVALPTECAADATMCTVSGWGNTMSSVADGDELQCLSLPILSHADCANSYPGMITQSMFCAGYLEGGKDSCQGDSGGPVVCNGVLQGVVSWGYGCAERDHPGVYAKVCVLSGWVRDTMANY
T3 sequence (P16049 20-241 K152T): as the sequence (P16049 20-241 K152E) above, with E133T counted along it

## Gly-Pro-Arg
[1]
  Vmax (Kcat), Relative to WT-Trp: 100
[2]
  Vmax, Relative to WT-Trp: 99
[3]
  Vmax, Relative to WT-Trp: 99
[4]
  Vmax, Relative to WT-Trp: 96
[5]
  Vmax, Relative to WT-Trp: 82
[6]
  Vmax, Relative to WT-Trp: 96
[7]
  Vmax, Relative to WT-Trp: 98
[8]
  Vmax, Relative to WT-Trp: 99
[9]
  Vmax, Relative to WT-Trp: 95
[10]
  Vmax, Relative to WT-Trp: 98
